Six compounds from patent US9481676B2, “Azepino[4,5-B]indoles and methods of use” (Medivation Technologies, Inc., priority 2008, dated 2016) can be followed below.

Experiment [1] concerns the target T1, human recombinant histamine H1 receptor (Homo sapiens, UniProt P35367).
T1 construct: expressed in transfected cells; host or cells: CHO cells
As to the kind of experiment: Histamine H1 radioligand binding ([3H]Pyrilamine). The note with it: compound at 1 μM; read-out: Histamine Binding (1 μM) H1, percent inhibition of specific binding. A digest of the protocol:
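Membranes from CHO cells expressing the receptor were incubated with compound and 1.2 nM [3H]pyrilamine for 180 min at 25 °C in 50 mM Tris-HCl pH 7.4 with MgCl2, NaCl and sucrose; 1 μM pyrilamine defined non-specific binding. Filter-bound radioactivity was counted.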

In experiment [2] the target is T2, human recombinant histamine H2 receptor (Homo sapiens, UniProt P25021).
T2 construct: expressed in transfected cells; host or cells: CHO-K1 cells
As to the kind of experiment: Histamine H2 radioligand binding ([125I]Aminopotentidine). The note with it: compound at 1 μM; read-out: Histamine Binding (1 μM) H2, percent inhibition of specific binding. A digest of the protocol:
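Membranes from CHO-K1 cells expressing recombinant human H2 receptor, in 50 mM phosphate buffer pH 7.4, incubated with 0.1 nM [125I]aminopotentidine for 120 min at 25 °C; nonspecific binding defined with 3 μM tiotidine.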

Experiment [3] has as its target T3, human recombinant adrenergic α2A receptor (Homo sapiens, UniProt P08913).
T3 construct: expressed in transfected cells; host or cells: insect Sf9 cells
T3 sequence (P08913 1-465): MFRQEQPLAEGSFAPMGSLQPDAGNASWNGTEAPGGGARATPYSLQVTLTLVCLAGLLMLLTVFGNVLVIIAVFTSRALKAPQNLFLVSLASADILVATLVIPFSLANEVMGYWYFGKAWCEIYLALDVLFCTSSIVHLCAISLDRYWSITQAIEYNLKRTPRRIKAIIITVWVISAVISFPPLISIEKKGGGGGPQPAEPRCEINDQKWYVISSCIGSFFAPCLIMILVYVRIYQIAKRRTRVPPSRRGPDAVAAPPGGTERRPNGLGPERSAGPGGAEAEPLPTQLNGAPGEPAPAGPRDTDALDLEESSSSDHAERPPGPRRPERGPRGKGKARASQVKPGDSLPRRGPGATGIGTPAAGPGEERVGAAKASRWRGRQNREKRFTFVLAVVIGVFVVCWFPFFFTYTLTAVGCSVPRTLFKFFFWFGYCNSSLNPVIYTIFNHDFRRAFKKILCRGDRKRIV
As to the kind of experiment: Adrenergic alpha2A radioligand binding ([3H]MK-912). The following applies: compound at 1 μM; read-out: Adrenergic (1 μM) α2A, percent inhibition of specific binding. A digest of the protocol:
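Membranes of Sf9 cells expressing human recombinant α2A receptor were incubated with compound and 1 nM [3H]MK-912 for 60 min at 25 °C in 50 mM Tris-HCl pH 7.4, 12.5 mM MgCl2, 2 mM EDTA. Nonspecific binding: 10 μM WB-4101.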

In experiment [4] the target is T4, human recombinant dopamine D2L receptor (Homo sapiens, UniProt P14416).
T4 construct: expressed in transfected cells; host or cells: CHO cells
As to the kind of experiment: Dopamine D2L radioligand binding ([3H]Spiperone). The following applies: compound at 1 μM; read-out: Dopamine (1 μM) D2L, percent inhibition of specific binding. In outline: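 Human recombinant D2L receptor from CHO cells, in Tris-HCl buffer pH 7.4 with ascorbic acid, BSA and 150 mM NaCl; compounds at 1 μM or lower (1% DMSO) incubated with 0.16 nM [3H]spiperone, 120 min, 25° C. Nonspecific binding by 10 μM haloperidol; filter counting; % inhibition of specific binding.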

Experiment [5] has as its target T5, human recombinant serotonin (5-Hydroxytryptamine) 5-HT6 receptor (Homo sapiens, UniProt P50406).
T5 construct: expressed in transfected cells; host or cells: human HeLa cells
Nature of the experiment: Serotonin 5-HT6 radioligand binding ([3H]LSD). The following applies: compound at 1 μM; read-out: Serotonin (1 μM) 5-HT6, percent inhibition of specific binding. In outline: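 Human recombinant 5-HT6 receptor from HeLa cells incubated with 1.5 nM [3H]LSD for 120 min at 37° C in 50 mM Tris-HCl pH 7.4, 150 mM NaCl, 2 mM ascorbic acid, 0.001% BSA. Nonspecific binding defined with 5 μM serotonin; bound ligand counted after filtration.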

For orientation: inhibition means the relative decrease from the control value, in per cent.

T4 sequence (P14416 whole entry): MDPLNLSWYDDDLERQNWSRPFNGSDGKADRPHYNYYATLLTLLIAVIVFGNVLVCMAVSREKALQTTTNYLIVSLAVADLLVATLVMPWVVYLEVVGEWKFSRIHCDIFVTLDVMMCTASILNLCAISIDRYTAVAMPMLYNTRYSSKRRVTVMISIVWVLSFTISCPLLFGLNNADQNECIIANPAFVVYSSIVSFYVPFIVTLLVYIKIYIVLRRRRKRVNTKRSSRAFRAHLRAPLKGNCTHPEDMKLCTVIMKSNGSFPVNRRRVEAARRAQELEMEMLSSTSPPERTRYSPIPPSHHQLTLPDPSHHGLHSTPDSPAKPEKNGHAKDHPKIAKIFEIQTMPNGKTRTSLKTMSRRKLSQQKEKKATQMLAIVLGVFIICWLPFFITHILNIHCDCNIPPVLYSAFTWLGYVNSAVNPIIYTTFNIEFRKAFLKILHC
T5 sequence (P50406 whole entry): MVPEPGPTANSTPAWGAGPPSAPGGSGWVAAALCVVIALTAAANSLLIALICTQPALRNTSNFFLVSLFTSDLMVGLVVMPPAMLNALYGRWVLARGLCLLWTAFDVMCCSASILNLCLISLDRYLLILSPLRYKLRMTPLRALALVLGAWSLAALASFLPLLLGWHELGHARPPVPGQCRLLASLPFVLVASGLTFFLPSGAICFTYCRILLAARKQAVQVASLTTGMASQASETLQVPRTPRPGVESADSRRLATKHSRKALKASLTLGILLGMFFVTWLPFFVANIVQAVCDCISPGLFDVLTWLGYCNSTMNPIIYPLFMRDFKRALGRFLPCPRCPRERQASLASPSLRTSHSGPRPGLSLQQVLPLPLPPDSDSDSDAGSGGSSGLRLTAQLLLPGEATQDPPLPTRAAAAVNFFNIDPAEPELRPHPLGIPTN
T1 sequence (P35367 whole entry): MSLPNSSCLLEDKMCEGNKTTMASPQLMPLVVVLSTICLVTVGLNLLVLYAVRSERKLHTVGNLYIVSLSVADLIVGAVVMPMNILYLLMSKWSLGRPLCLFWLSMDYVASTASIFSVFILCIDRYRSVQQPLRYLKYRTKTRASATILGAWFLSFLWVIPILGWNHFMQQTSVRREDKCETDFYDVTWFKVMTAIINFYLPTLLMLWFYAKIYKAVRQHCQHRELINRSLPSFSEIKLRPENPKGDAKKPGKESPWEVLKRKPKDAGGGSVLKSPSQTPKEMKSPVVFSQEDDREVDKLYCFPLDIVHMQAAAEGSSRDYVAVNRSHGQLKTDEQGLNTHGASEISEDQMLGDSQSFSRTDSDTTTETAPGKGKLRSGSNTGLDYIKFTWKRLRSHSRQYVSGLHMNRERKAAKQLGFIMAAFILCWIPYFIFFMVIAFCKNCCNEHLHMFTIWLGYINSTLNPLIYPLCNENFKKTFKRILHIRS
T2 sequence (P25021 whole entry): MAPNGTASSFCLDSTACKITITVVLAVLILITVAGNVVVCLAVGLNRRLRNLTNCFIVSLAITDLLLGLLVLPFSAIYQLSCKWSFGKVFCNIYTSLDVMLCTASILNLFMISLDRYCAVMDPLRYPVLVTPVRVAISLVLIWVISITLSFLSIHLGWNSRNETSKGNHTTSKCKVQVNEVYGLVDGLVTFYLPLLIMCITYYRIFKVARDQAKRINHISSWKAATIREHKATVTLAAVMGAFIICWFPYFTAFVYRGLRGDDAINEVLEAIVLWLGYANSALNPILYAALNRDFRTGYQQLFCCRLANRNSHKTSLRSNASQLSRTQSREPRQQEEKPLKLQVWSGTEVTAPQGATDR

Regarding `Cc1ccc2c(c1)c1c(n2CC(O)c2ccncc2)CCN(C)CC1` (stereo not drawn) [Compound No. 43, 2-(2,3,4,5-tetrahydro-3,9-dimethylazepino[4,5-b]indol-6(1H)-yl)-1-(pyridin-4-yl)ethanol], the inhibition at 1 µM is 100% in experiment [1]; 30% in experiment [2]; 78% in experiment [3]; 4% in experiment [4]; 48% in experiment [5].

As to `CN1CCc2c(n(CC(=O)N3CCOCC3)c3ccc(Cl)cc23)CC1` [Compound No. 60, 2-(9-chloro-2,3,4,5-tetrahydro-3-methylazepino[4,5-b]indol-6(1H)-yl)-1-morpholinoethanone], the inhibition at 1 µM is 2% in experiment [1]; 6% in experiment [2]; 7% in experiment [3]; -9% in experiment [4]; 3% in experiment [5].

Take `CN1CCc2c(n(CCc3ccncc3)c3ccc(Cl)cc23)CC1` [Compound No. 5, 9-chloro-1,2,3,4,5,6-hexahydro-3-methyl-6-(2-(pyridin-4-yl)ethyl)azepino[4,5-b]indole]: the inhibition at 1 µM in experiment [1] worked out at 100%; in experiment [2], 62%; in experiment [3], 97%; in experiment [4] it was 34%; in experiment [5] it was 93%.

As to `Cc1ccc2c(c1)c1c(n2CCc2ccccn2)CCN(C)CC1` [Compound No. 9, 1,2,3,4,5,6-hexahydro-3,9-dimethyl-6-(2-(pyridin-2-yl)ethyl)azepino[4,5-b]indole], the inhibition at 1 µM stood at 99% in experiment [1]; 44% in experiment [2]; 88% in experiment [3]; 20% in experiment [4]; 81% in experiment [5].

Consider `CN1CCc2c(n(CCc3ccc(Cl)cc3)c3ccc(Cl)cc23)CC1` [Compound No. 30, 6-(4-chlorophenethyl)-9-chloro-1,2,3,4,5,6-hexahydro-3-methylazepino[4,5-b]indole], for which the inhibition at 1 µM stood at 102% in experiment [1]; 97% in experiment [2]; 99% in experiment [3]; 53% in experiment [4]; 86% in experiment [5].

As to `CN1CCc2c(n(CC(=O)Nc3ccc(F)cc3)c3ccc(Cl)cc23)CC1` [Compound No. 37, 2-(9-chloro-2,3,4,5-tetrahydro-3-methylazepino[4,5-b]indol-6(1H)-yl)-N-(4-fluorophenyl) acetamide], the inhibition at 1 µM in experiment [1] is 13%; in experiment [2], 4%; in experiment [3], 68%; in experiment [4], 9%; in experiment [5] it was 12%.
